In brackets after ≈: the same amount, converted by molar mass.
Key:
Assay in all cases: in vitro antibacterial evaluation, MIC by broth dilution
Type in all cases: cell-based
Enterococcus sp. = conditions: broth dilution, 18 hours at 35° C.
Procedure, shortened: (§1)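 Following National Committee for Clinical Laboratory Standards recommendations (M7-A2), susceptibility was measured by dilution in Muller-Hinton II […]. Bacteria were seeded at 5×10^5 CFU/mL against compound concentrations from 64 down to 0.06 μg/mL.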

Streptococcus sp. = conditions: broth dilution, 18 hours at 35° C.
Procedure, shortened: as §1

Staphylococcus sp. = conditions: broth dilution, 18 hours at 35° C.; for MIC Staphylococcus aureus (ATCC 29213): strain ATCC 29213; for MIC Staphylococcus aureus (GC 1131): strain GC 1131; for MIC Staphylococcus aureus (GC 4541): strain GC 4541; for MIC Staphylococcus aureus (GC 4542): strain GC 4542; for MIC Staphylococcus aureus (GC 4544): strain GC 4544; for MIC Staphylococcus aureus (GC 4545): strain GC 4545
Procedure, shortened: as §1

Escherichia coli = conditions: 18 hours at 35° C.

SMILES: CC(c1ccccc1)C1NC(=O)CNC(=O)C(CO)NC(=O)C(C(O)C2CNC(=N)N2C2OC(CO)C(O)C(O)C2O)NC(=O)C(C(O)C2CNC(=N)N2)NC(=O)C(Cc2ccc(OC3OC(CO)C(OC4OC5COC(C)(c6ccc(F)cc6)OC5C(O)C4O)C(O)C3O)cc2)NC1=O (stereo not shown) [Example 216]
- MIC Enterococcus avium (GC 4558) (Enterococcus sp.): 4 µg/mL (≈ 2.83 µM)
- MIC Enterococcus faecalis (ATCC 29212) (Enterococcus sp.): 4 µg/mL (≈ 2.83 µM)
- MIC Enterococcus faecalis (GC 2242) (Enterococcus sp.): 4 µg/mL (≈ 2.83 µM)
- MIC Enterococcus faecalis (GC 2691) (Enterococcus sp.): 4 µg/mL (≈ 2.83 µM)
- MIC Enterococcus faecalis (GC 3059) (Enterococcus sp.): 4 µg/mL (≈ 2.83 µM)
- MIC Enterococcus faecalis (GC 4552) (Enterococcus sp.): 4 µg/mL (≈ 2.83 µM)
- MIC Enterococcus faecalis (GC 4553) (Enterococcus sp.): 4 µg/mL (≈ 2.83 µM)
- MIC Enterococcus faecalis (GC 4554) (Enterococcus sp.): 4 µg/mL (≈ 2.83 µM)
- MIC Enterococcus faecalis (GC 6189) (Enterococcus sp.): 4 µg/mL (≈ 2.83 µM)
- MIC Enterococcus faecium (GC 2243) (Enterococcus sp.): 4 µg/mL (≈ 2.83 µM)
- MIC Enterococcus faecium (GC 4556) (Enterococcus sp.): 4 µg/mL (≈ 2.83 µM)
- MIC Enterococcus faecium (GC 4557) (Enterococcus sp.): 4 µg/mL (≈ 2.83 µM)
- MIC Enterococcus faecalis (ATCC 29212) (Enterococcus sp.; inoculum 5×10^5 CFU/mL, strain ATCC 29212): 4 µg/mL (≈ 2.83 µM)
- MIC Enterococcus faecalis (GC 2242) (Enterococcus sp.; inoculum 5×10^5 CFU/mL, strain GC 2242): 4 µg/mL (≈ 2.83 µM)
- MIC Enterococcus faecium (GC 2243) (Enterococcus sp.; inoculum 5×10^5 CFU/mL, strain GC 2243): 4 µg/mL (≈ 2.83 µM)
- MIC Enterococcus faecalis (GC 2691) (Enterococcus sp.; inoculum 5×10^5 CFU/mL, strain GC 2691): 4 µg/mL (≈ 2.83 µM)
- MIC Enterococcus faecalis (GC 3059) (Enterococcus sp.; inoculum 5×10^5 CFU/mL, strain GC 3059): 4 µg/mL (≈ 2.83 µM)
- MIC Enterococcus faecalis (GC 4552) (Enterococcus sp.; inoculum 5×10^5 CFU/mL, strain GC 4552): 4 µg/mL (≈ 2.83 µM)
- MIC Enterococcus faecalis (GC 4553) (Enterococcus sp.; inoculum 5×10^5 CFU/mL, strain GC 4553): 4 µg/mL (≈ 2.83 µM)
- MIC Enterococcus faecalis (GC 4554) (Enterococcus sp.; inoculum 5×10^5 CFU/mL, strain GC 4554): 4 µg/mL (≈ 2.83 µM)
- MIC Enterococcus faecium (GC 4556) (Enterococcus sp.; inoculum 5×10^5 CFU/mL, strain GC 4556): 4 µg/mL (≈ 2.83 µM)
- MIC Enterococcus faecium (GC 4557) (Enterococcus sp.; inoculum 5×10^5 CFU/mL, strain GC 4557): 4 µg/mL (≈ 2.83 µM)
- MIC Enterococcus avium (GC 4558) (Enterococcus sp.; inoculum 5×10^5 CFU/mL, strain GC 4558): 4 µg/mL (≈ 2.83 µM)
- MIC Enterococcus faecalis (GC 6189) (Enterococcus sp.; inoculum 5×10^5 CFU/mL, strain GC 6189): 4 µg/mL (≈ 2.83 µM)
- MIC Streptococcus agalactiae (GC 4564) (Streptococcus sp.): 0.5 µg/mL (≈ 0.353 µM)
- MIC Streptococcus pneumoniae (ATCC 6301) (Streptococcus sp.): 0.25 µg/mL (≈ 0.177 µM)
- MIC Streptococcus pneumoniae (GC 1894) (Streptococcus sp.): <0.06 µg/mL
- MIC Streptococcus pneumoniae (GC 4565) (Streptococcus sp.): 0.25 µg/mL (≈ 0.177 µM)
- MIC Streptococcus pyogenes (GC 4563) (Streptococcus sp.): 0.5 µg/mL (≈ 0.353 µM)
- MIC Streptococcus pneumoniae (ATCC 6301) (Streptococcus sp.; inoculum 5×10^5 CFU/mL, strain ATCC 6301): 0.25 µg/mL (≈ 0.177 µM)
- MIC Streptococcus pneumoniae (GC 1894) (Streptococcus sp.; inoculum 5×10^5 CFU/mL, strain GC 1894): <0.06 µg/mL
- MIC Streptococcus pyogenes (GC 4563) (Streptococcus sp.; inoculum 5×10^5 CFU/mL, strain GC 4563): 0.5 µg/mL (≈ 0.353 µM)
- MIC Streptococcus agalactiae (GC 4564) (Streptococcus sp.; inoculum 5×10^5 CFU/mL, strain GC 4564): 0.5 µg/mL (≈ 0.353 µM)
- MIC Streptococcus pneumoniae (GC 4565) (Streptococcus sp.; inoculum 5×10^5 CFU/mL, strain GC 4565): 0.25 µg/mL (≈ 0.177 µM)
- MIC Staphylococcus aureus (ATCC 29213) (Staphylococcus sp.): 2 µg/mL (≈ 1.41 µM)
- MIC Staphylococcus aureus (GC 1131) (Staphylococcus sp.): 2 µg/mL (≈ 1.41 µM)
- MIC Staphylococcus aureus (GC 3051) (Staphylococcus sp.; strain GC 3051): 2 µg/mL (≈ 1.41 µM)
- MIC Staphylococcus aureus (GC 3053) (Staphylococcus sp.; strain GC 3053): 2 µg/mL (≈ 1.41 µM)
- MIC Staphylococcus aureus (GC 4541) (Staphylococcus sp.): 1 µg/mL (≈ 0.707 µM)
- MIC Staphylococcus aureus (GC 4542) (Staphylococcus sp.): 1 µg/mL (≈ 0.707 µM)
- MIC Staphylococcus aureus-SMITH (GC 4543) (Staphylococcus sp.; strain GC 4543): 2 µg/mL (≈ 1.41 µM)
- MIC Staphylococcus aureus (GC 4544) (Staphylococcus sp.): 2 µg/mL (≈ 1.41 µM)
- MIC Staphylococcus aureus (GC 4545) (Staphylococcus sp.): 1 µg/mL (≈ 0.707 µM)
- MIC Staphylococcus haemolyticus (GC 4546) (Staphylococcus sp.; strain GC 4546): 1 µg/mL (≈ 0.707 µM)
- MIC Coagulase Negative Staphylococcus (GC 4547) (Staphylococcus sp.; strain GC 4547): 2 µg/mL (≈ 1.41 µM)
- MIC Coagulase Negative Staphylococcus (GC 4548) (Staphylococcus sp.; strain GC 4548): 1 µg/mL (≈ 0.707 µM)
- MIC Coagulase Negative Staphylococcus (GC 4549) (Staphylococcus sp.; strain GC 4549): 1 µg/mL (≈ 0.707 µM)
- MIC Coagulase Negative Staphylococcus (GC 4551) (Staphylococcus sp.; strain GC 4551): 2 µg/mL (≈ 1.41 µM)
- MIC Coagulase Negative Staphylococcus (GC 6257) (Staphylococcus sp.; strain GC 6257): 1 µg/mL (≈ 0.707 µM)
- MIC Escherichia coli (ATCC 25922) (Escherichia coli): 32 µg/mL (≈ 22.6 µM)
- MIC Escherichia coli (GC 4559) (Escherichia coli): 16 µg/mL (≈ 11.3 µM)
- MIC Escherichia coli (GC 4560) (Escherichia coli): 2 µg/mL (≈ 1.41 µM)

SMILES: CC(c1ccccc1)C1NC(=O)CNC(=O)C(CO)NC(=O)C(C(O)C2CNC(=N)N2C2OC(COC(=O)C(c3ccccc3)c3ccccc3)C(O)C(O)C2O)NC(=O)C(C(O)C2CNC(=N)N2)NC(=O)C(Cc2ccc(OC3OC(CO)C(OC4OC(CO)C(O)C(O)C4O)C(O)C3O)cc2)NC1=O (stereo not drawn) [Example 96, Cyclo[glycyl-β-methylphenylalanyl-O-(4-O-hexopyranosylhexoipyranosyl)tyrosyl-3-(2-iminoimidazolidin-4-yl)seryl-3-[3-[6-O-(diphenylacetyl)hexopyranosyl]-2-iminoimidazolidin-4-yl]-serylseryl]]
- MIC Enterococcus avium (GC 4558) (Enterococcus sp.; Enterococcus avium (GC 4558)): >128 µg/mL
- MIC Enterococcus faecalis (ATCC 29212) (Enterococcus sp.; Enterococcus faecalis (ATCC 29212)): >128 µg/mL
- MIC Enterococcus faecalis (GC 4552) (Enterococcus sp.; Enterococcus faecalis (GC 4552)): >128 µg/mL
- MIC Enterococcus faecalis (GC 4553) (Enterococcus sp.; Enterococcus faecalis (GC 4553)): >128 µg/mL
- MIC Enterococcus faecalis (GC 4554) (Enterococcus sp.; Enterococcus faecalis (GC 4554)): >128 µg/mL
- MIC Enterococcus faecium (GC 2243) (Enterococcus sp.; Enterococcus faecium (GC 2243)): >128 µg/mL
- MIC Enterococcus faecium (GC 4556) (Enterococcus sp.; Enterococcus faecium (GC 4556)): >128 µg/mL
- MIC Enterococcus faecium (GC 4557) (Enterococcus sp.; Enterococcus faecium (GC 4557)): 128 µg/mL (≈ 85.9 µM)
- MIC Enterococcus avium (GC 4558) (Enterococcus sp.): >128 µg/mL
- MIC Enterococcus faecalis (ATCC 29212) (Enterococcus sp.): >128 µg/mL
- MIC Enterococcus faecalis (GC 2242) (Enterococcus sp.): >128 µg/mL
- MIC Enterococcus faecalis (GC 4552) (Enterococcus sp.): >128 µg/mL
- MIC Enterococcus faecalis (GC 4553) (Enterococcus sp.): >128 µg/mL
- MIC Enterococcus faecalis (GC 4554) (Enterococcus sp.): >128 µg/mL
- MIC Enterococcus faecium (GC 2243) (Enterococcus sp.): >128 µg/mL
- MIC Enterococcus faecium (GC 4556) (Enterococcus sp.): >128 µg/mL
- MIC Enterococcus faecium (GC 4557) (Enterococcus sp.): 128 µg/mL (≈ 85.9 µM)
- MIC Enterococcus faecalis (GC 2242) (Enterococcus sp.; strain GC 2242): >128 µg/mL
- MIC Streptococcus agalactiae (GC 4564) (Streptococcus sp.): >128 µg/mL
- MIC Streptococcus pneumoniae (GC 4565) (Streptococcus sp.): >128 µg/mL
- MIC Streptococcus pyogenes (ID-3187) (Streptococcus sp.): >128 µg/mL
- MIC Streptococcus agalactiae (GC 4564) (Streptococcus sp.; strain GC 4564): >128 µg/mL
- MIC Streptococcus pneumoniae (GC 4565) (Streptococcus sp.; strain GC 4565): >128 µg/mL
- MIC Streptococcus pyogenes (ID-3187) (Streptococcus sp.; strain ID-3187): >128 µg/mL
- MIC Coagulase Negative Staphylococcus (GC 4547) (Staphylococcus sp.): >128 µg/mL
- MIC Coagulase Negative Staphylococcus (GC 4548) (Staphylococcus sp.): >128 µg/mL
- MIC Coagulase Negative Staphylococcus (GC 4549) (Staphylococcus sp.): >128 µg/mL
- MIC Coagulase Negative Staphylococcus (GC 4551) (Staphylococcus sp.): >128 µg/mL
- MIC Coagulase Negative Staphylococcus (ID-3941) (Staphylococcus sp.): 128 µg/mL (≈ 85.9 µM)
- MIC Staphylococcus aureus-SMITH (GC 4543) (Staphylococcus sp.): >128 µg/mL
- MIC Staphylococcus haemolyticus (GC 4546) (Staphylococcus sp.): >128 µg/mL
- MIC Staphylococcus aureus (ATCC 29213) (Staphylococcus sp.): >128 µg/mL
- MIC Staphylococcus aureus (GC 1131) (Staphylococcus sp.): >128 µg/mL
- MIC Staphylococcus aureus (GC 4541) (Staphylococcus sp.): >128 µg/mL
- MIC Staphylococcus aureus (GC 4542) (Staphylococcus sp.): >128 µg/mL
- MIC Staphylococcus aureus-SMITH (GC 4543) (Staphylococcus sp.; strain GC 4543): >128 µg/mL
- MIC Staphylococcus aureus (GC 4544) (Staphylococcus sp.): >128 µg/mL
- MIC Staphylococcus aureus (GC 4545) (Staphylococcus sp.): >128 µg/mL
- MIC Staphylococcus haemolyticus (GC 4546) (Staphylococcus sp.; strain GC 4546): >128 µg/mL
- MIC Coagulase Negative Staphylococcus (GC 4547) (Staphylococcus sp.; strain GC 4547): >128 µg/mL
- MIC Coagulase Negative Staphylococcus (GC 4548) (Staphylococcus sp.; strain GC 4548): >128 µg/mL
- MIC Coagulase Negative Staphylococcus (GC 4549) (Staphylococcus sp.; strain GC 4549): >128 µg/mL
- MIC Coagulase Negative Staphylococcus (GC 4551) (Staphylococcus sp.; strain GC 4551): >128 µg/mL
- MIC Coagulase Negative Staphylococcus (ID-3941) (Staphylococcus sp.; strain ID-3941): 128 µg/mL (≈ 85.9 µM)
- MIC Escherichia coli (ATCC 25922) (Escherichia coli): >128 µg/mL
